According to patent US20130131073A1, “FUSED-IMIDAZOYL COMPOUNDS USEFUL AS ANTIMICROBIAL AGENTS” (priority 2010, published 2013):
In brackets after ≈: the same amount, converted by molar mass.

tested on: Staphylococcus aureus ATCC29213; assay: Broth microdilution susceptibility testing (MIC determination); type: cell-based; conditions: Mueller Hinton broth, overnight incubation at 35° C., lowest concentration preventing visible growth, read-out: MIC Staph. aureus ATCC29213
Experimental: Susceptibility testing (MIC determinations) was performed using the standard broth microdilution methodology precisely as described in the Clinical Laboratory Standards Institute Document M7-A6; Methods for Dilution Antimicrobial Susceptibility Tests for Bacteria That Grow Aerobically; Approved Standard- Sixth Edition (ISBN 1-56238-486-4), CLSI, 940 West Valley Road, Suite 1400, Wayne, Pa. 19087-1898 USA. To perform the test, a series of 0.1 ml media in a 96-well plate is prepared with Mueller Hinton broth to which various concentrations of the test compound are added. The media are then inoculated with a standardized suspension of the test organism, Staphylococcus aureus ATCC29213. After overnight incubation at 35° C., the tests are examined and the minimal inhibitory concentration (MIC) is determined. MIC is defined as the lowest concentration of an antimicrobial agent that prevents visible growth of a microorganism in the broth microdilution susceptibility test

| SMILES | MIC [µg/mL] |
| --- | --- |
| Cc1cccc(C)c1N1CCN(C(=O)CNc2c(-c3ccc(N(C)C)cc3)nc3cnccn23)CC1 [compound 26] | 2 (≈ 4.14 µM) |
| CN(C)c1ccc(-c2nc3cnccn3c2NCC(=O)N2CCN(c3c(Cl)cncc3Cl)CC2)cc1 [compound 31] | 0.08 (≈ 0.152 µM) |
| CC(=O)N1CCN(C(=O)C(C)Nc2c(-c3ccc(N(C)C)cc3)nc3cnccn23)CC1 (centres unmarked) [compound 102] | 1.25 (≈ 2.87 µM) |
| CC(Nc1c(-c2ccc(OC(F)(F)F)cc2)nc2cnccn12)C(=O)N1CCN(C)CC1 (centres unmarked) [compound 184] | 5 (≈ 11.1 µM) |
| C=CCN1CCN(C(=O)C(C)Nc2c(-c3ccc(OC(F)(F)F)cc3)nc3cnccn23)CC1 (centres unmarked) [compound 189] | 5 (≈ 10.5 µM) |
| CN1CCN(C(=O)CNc2c(-c3ccc(OC(F)(F)F)cc3)nc3cnccn23)CC1 [compound 268] | 10 (≈ 23 µM) |
| O=C(CNc1c(-c2ccc(OC(F)(F)F)cc2)nc2cnccn12)N1CCN(c2ccncc2)CC1 [compound 269] | 1.25 (≈ 2.51 µM) |
| O=C(CNc1c(-c2ccc(OC(F)(F)F)cc2)nc2cnccn12)N1CCN(c2ccccc2Cl)CC1 [compound 270] | 10 (≈ 18.8 µM) |
| O=C(CNc1c(-c2ccc(OC(F)(F)F)cc2)nc2cnccn12)N1CCN(c2c(Cl)cncc2Cl)CC1 [compound 274] | 0.08 (≈ 0.141 µM) |
| O=C(CNc1c(-c2ccc(OC(F)(F)F)cc2)nc2cnccn12)N1CCN(C(=O)OCc2ccccc2)CC1 [compound 275] | 10 (≈ 18 µM) |
| Cc1cccc(N2CCN(C(=O)CNc3c(-c4ccc(OC(F)(F)F)cc4)nc4cnccn34)CC2)c1C [compound 276] | 10 (≈ 19.1 µM) |
| O=C(CNc1c(-c2ccc(OC(F)(F)F)cc2)nc2cnccn12)N1CCN(CCC2CCCCC2)CC1 [compound 277] | 2.5 (≈ 4.71 µM) |
| COc1cc(OC)nc(CN2CCN(C(=O)CNc3c(-c4ccc(OC(F)(F)F)cc4)nc4cnccn34)CC2)n1 [compound 280] | 10 (≈ 17.5 µM) |
| COCCCN1CCN(C(=O)CNc2c(-c3ccc(OC(F)(F)F)cc3)nc3cnccn23)CC1 [compound 281] | 5 (≈ 10.2 µM) |
| O=C(CNc1c(-c2ccc(OC(F)(F)F)cc2)nc2cnccn12)N1CCN(c2nc(-c3ccccc3)ns2)CC1 [compound 282] | 5 (≈ 8.61 µM) |
| CC(c1ccccc1)N1CCN(C(=O)CNc2c(-c3ccc(OC(F)(F)F)cc3)nc3cnccn23)CC1 (centres unmarked) [compound 295] | 10 (≈ 19.1 µM) |
| Cc1cccc(N2CCN(C(=O)C(C)Nc3c(-c4ccc(OC(F)(F)F)cc4)nc4cnccn34)CC2C)c1 (centres unmarked) [compound 318] | 10 (≈ 18.6 µM) |
